Laboratory results: patent US20160168140A1, “HETEROCYCLIC COMPOUNDS AS ANTIBIOTIC POTENTIATORS” (priority 2014, published 2016)

System: Acinetobacter baumannii (Ab23)
Experiment: MIC shift assay of antibiotics (broth microdilution)
Type: cell-based
Conditions: fold shift of colistin MIC, nc = no changeover or no shift
Experimental: Minimum inhibitory concentration (MIC) shift assays were performed to determine if the test compounds could alter the MIC of existing antibacterial drugs (e.g., ciprofloxacin and colistin) for E. coli, Acinetobacter baumannii, Klebsiella pneumoniae, Pseudomonas aeruginosa, and Enterobacter cloacae. The MIC shift assay is based on the standard broth microdilution MIC determination protocol of Wiegand et al, Nat Protoc. 3(2):163-75 (2008), with slight modifications that allow for the screening of up to seven test compounds in a single plate.
On the day before an assay, bacteria were grown overnight in cation-adjusted Mueller Hinton broth (CAMHB; Teknova, Hollister, Calif.) at 37° C. in an orbital shaker and sub-cultured at a 1:200 dilution the following morning. The cells were grown to OD600=0.5 to 0.8 and then diluted to OD600=0.01. From a serial dilution of each antibiotic at (50 μL of 2× concentrated stock solutions) several concentrations were added to the wells of a sterile, transparent round-bottom 96-well plate (Phenix Research Products, Candler, N.C.), and diluted cells (50 μL) were added to the plates for a starting OD600 of 0.005. […] A row of wells lacking test compound but containing the antibiotic was used to determine the MIC of that antibiotic alone. A column of wells lacking both antibiotic and test compound served as a growth control, and an additional column containing only CAMHB was included as a sterile blank control.
The plates were incubated for 18 to 20 h at 37° C. in an orbital shaker, and the cell density (OD600) was determined the following day in a microplate reader (PolarStar Optima, BMG Labtech). The MIC shift was determined by comparing the MIC of the antibiotic alone to the MIC of the antibiotic plus test compound.

Compound	colistin MIC shift, Ab23 at (compd concentration) (compound concentration 4 μM)	further results
CN(C)CCOC(=O)n1cc(-c2ccc(Cl)c(Cl)c2)c2cc(Cl)ccc21 [362a]	8x	
Fc1cc(-c2n[nH]c3ccc(Cl)cc23)ccc1C(F)(F)F [compound 539]		colistin MIC shift, Ab23 at (compd concentration) (compound concentration 10 μM): 4x
Cc1cccc2c(NCCCN(C)C)nc(-c3cc(-c4ccccc4Cl)cc(C(F)(F)F)c3)nc12 [compound 513]	32x	
Cc1cccc2c(NCCCN(C)C)nc(-c3cc(-c4cccnc4)cc(C(F)(F)F)c3)nc12 [compound 510]	16x	
CN(C)CCCn1cc(-c2ccc(Cl)c(Cl)c2)c2cc(Cl)ccc21 [compound 359]	16x	
Cc1cccc2c(NCCCN)nc(-c3cc(-c4ccccc4)cc(C(F)(F)F)c3)nc12 [524i]	128x	
O=C(O)CCn1cc(/C=C/c2ccc(Cl)c(Cl)c2)c2ccc(F)cc21 [compound 417]		colistin MIC shift, Ab23 at (compd concentration) (compound concentration 10 μM): 8x
CN(C)CCCNc1nc(-c2cccc(-c3cccc(Cl)c3Cl)c2)nc2c(Cl)cccc12 [compound 490]	16x	
CCN(CC)CCCC(C)Nc1nc(-c2cn(Cc3ccccc3)c3c(Cl)cccc23)nc2ccccc12 (racemic) [compound 562]		colistin MIC shift, Ab23 at (compd concentration) (compound concentration 10 μM): 8x
CN(C)CCCNc1nc(-c2cccc(-c3ccccc3Cl)c2)nc2c(Cl)cccc12 [compound 351]		colistin MIC shift, Ab23 at (compd concentration) (compound concentration 2 μM): 8-16x
Cc1cccc2c(NCCCN)nc(-c3cccc(-c4cc(C(F)(F)F)ccc4F)c3)nc12 [491a]	128x	
CNCCCNc1nc(-c2cn(Cc3ccc(Cl)cc3)c3c(Cl)cccc23)nc2c(C)cccc12 [compound 583]	4x	
Cc1cccc2c(NCCCN(C)C)nc(-c3cccc(-c4cc(C(F)(F)F)ccc4F)c3)nc12 [compound 474]	32x	
CCN(CC)CCCC(C)Nc1nc(/C=C/c2ccc3ccccc3c2)nc2cc(Cl)ccc12 (racemic) [compound 305]	4x	
CCN(CC)CCCC(C)Nc1nc(/C=C/c2ccc(Cl)c(Cl)c2)nc2c(Cl)cccc12 (racemic) [compound 320]	2x	
CCN(CC)CCCC(C)Nc1nc(/C=C/c2ccc(Cl)c(Cl)c2)nc2cc(C(F)(F)F)ccc12 (racemic) [compound 315]	4-8x	
Cc1cccc2c(NCCCN(C)C)nc(-c3ccc(Cl)c(Cl)c3)nc12 [compound 458]		colistin MIC shift, Ab23 at (compd concentration) (compound concentration 10 μM): 16x
CCN(CC)CCCC(C)Nc1nc(-c2cccc(-c3cc(F)cc(C(F)(F)F)c3)c2)nc2c(C)cccc12 (stereo not drawn) [compound 475]	4-8x	
Cc1cccc2c(NCCCN(C)C)nc(-c3cccc(-c4ccc(C(F)(F)F)cc4F)c3)nc12 [compound 472]	16x	

Compound	colistin MIC shift, Ab23 at (compd concentration) (compound concentration 4 μM)	further results
CCN(CC)CCCC(C)Nc1nc(-c2cccc(-c3cccc(Cl)c3Cl)c2)nc2c(C)cccc12 (stereo not drawn) [compound 483]	16x	
E-1-(5-bromo-3-(3,4-dichlorostyryl)-1H-indol-1-yl)-2-(dimethylamino)ethan-1-one [compound 457]	16x	
CCN(CC)CCCC(C)Nc1nc(/C=C/c2ccc(Cl)c(Cl)c2)nc2c(C(F)(F)F)cccc12 (racemic) [compound 312]	16x	
Fc1ccc2c(/C=C/c3cc(Cl)cc(Cl)c3)c[nH]c2c1 [compound 388]	16x	
CCC(N)C(=O)n1cc(-c2ccc(Cl)c(Cl)c2)c2cc(Cl)ccc21 (stereo not drawn) [362f]	64x	
CCN(CC)CCCC(C)Nc1nc(/C=C/c2ccc(Cl)c(Cl)c2)nc2ccc(Br)cc12 (racemic) [compound 318]	2x	
CN(C)CC(=O)n1cc(-c2ccc(Cl)c(Cl)c2)c2cc(Cl)ccc21 [compound 362]		colistin MIC shift, Ab23 at (compd concentration) (compound concentration 2 μM): 16x
CCN(CC)CCCC(C)Nc1nc(-c2ccc3cc(Cl)c(Cl)cc3c2)nc2c(C)cccc12 (stereo not drawn) [compound 443]	16x	
CCN(CC)CCCC(C)Nc1nc(/C=C/c2ccc(C(F)(F)F)cc2)nc2cc(Cl)ccc12 (racemic) [compound 307]		colistin MIC shift, Ab23 at (compd concentration) (compound concentration 8 μM): 4x
CN(C)CCCNc1nc(-c2cc(Br)cc(C(F)(F)F)c2)nc2c(F)cccc12 [compound 503]		colistin MIC shift, Ab23 at (compd concentration) (compound concentration 10 μM): 4x
FC(F)(F)c1cccc(-c2c[nH]c3cc(Cl)c(Cl)cc23)c1 [compound 431]		colistin MIC shift, Ab23 at (compd concentration) (compound concentration 1 μM): 4x (1 μM);; colistin MIC shift, Ab23 at (compd concentration) (compound concentration 2 μM): ≧16x (2 μM)
CCN(CC)CCCC(C)Nc1nc(/C=C/c2ccc(Cl)c(Cl)c2)nc2c(F)cccc12 (racemic) [compound 319]	2x	
CCN(CC)CCCC(C)Nc1nc(-c2cc(-c3ccc(C(F)(F)F)cc3)cc(C(F)(F)F)c2)nc2c(C)cccc12 (stereo not drawn) [compound 495]	16x	
FC(F)(F)c1cccc(-c2n[nH]c3cc(C(F)(F)F)ccc23)c1 [compound 536]		colistin MIC shift, Ab23 at (compd concentration) (compound concentration 10 μM): 16x
COc1cc(-c2n[nH]c3cc(C(F)(F)F)ccc23)cc(C(F)(F)F)c1 [compound 552]		colistin MIC shift, Ab23 at (compd concentration) (compound concentration 10 μM): 8x
FC(F)(F)c1ccc2c(-c3ccc(Cl)c(Cl)c3)n[nH]c2c1 [compound 441]		colistin MIC shift, Ab23 at (compd concentration) (compound concentration 2 μM): ≧16x
O=C(Nc1ccc(Cl)c(Cl)c1)c1c[nH]c2ccc(Br)cc12 [compound 420]		colistin MIC shift, Ab23 at (compd concentration) (compound concentration 2 μM): 16x
Cc1ccc2[nH]cc(/C=C/c3ccc(Cl)c(Cl)c3)c2c1 [compound 370]	32x	
FC(F)(F)c1cccc(-c2cccc(-c3n[nH]c4ccc(Cl)cc34)c2)c1 [compound 525]		colistin MIC shift, Ab23 at (compd concentration) (compound concentration 10 μM): 1x

Compound	colistin MIC shift, Ab23 at (compd concentration) (compound concentration 4 μM)	further results
O=C(c1ccc(Cl)c(Cl)c1)n1nc(-c2ccc(Cl)c(Cl)c2)c2ccc(C(F)(F)F)cc21 [compound 392, (3,4-dichlorophenyl)(3-(3,4-dichlorophenyl)-6-(trifluoromethyl)-1H-indazol-1-yl)methanone]	16x	
Fc1ccc2[nH]cc(/C=C/c3ccc(Cl)c(Cl)c3)c2c1 [compound 368]	16-32x	
Clc1ccc(/C=C/c2c[nH]c3ccc(Br)cc23)cc1Cl [compound 363]	32-64x (4 μM);	colistin MIC shift, Ab23 at (compd concentration) (compound concentration 2 μM): ≧16x (2 μM)
FC(F)(F)c1cccc(-c2c[nH]c3ccc(Cl)cc23)c1 [compound 430]		colistin MIC shift, Ab23 at (compd concentration) (compound concentration 2 μM): 16x
Fc1cc(-c2cccc(-c3n[nH]c4cc(C(F)(F)F)ccc34)c2)ccc1C(F)(F)F [compound 528]		colistin MIC shift, Ab23 at (compd concentration) (compound concentration 10 μM): 8x
Cc1cccc2c(NCCCN3CCCCC3)nc(-c3cc(Br)cc(C(F)(F)F)c3)nc12 [compound 347]		colistin MIC shift, Ab23 at (compd concentration) (compound concentration 2 μM): 8-16x
CCN(CC)CCCC(C)Nc1nc(-c2cc(Cc3ccccc3)c3ccccc3c2)nc2c(C)cccc12 (stereo not drawn) [compound 447]	4x	
CCN(CC)CCCC(C)Nc1nc(/C=C/c2ccc(Cl)c(Cl)c2)nc2c([N+](=O)[O-])cccc12 (racemic) [compound 314]	8x	
CN(C)CCCNc1nc(/C=C/c2ccc(Cl)c(Cl)c2)nc2c([N+](=O)[O-])cccc12 [compound 302]	16x	
Cc1cccc2c(NCCCN(C)C)nc(-c3cc(-c4ccccn4)cc(C(F)(F)F)c3)nc12 [524b]	16x	
FC(F)(F)c1ccc2c(-c3ccccc3C(F)(F)F)n[nH]c2c1 [compound 547]		colistin MIC shift, Ab23 at (compd concentration) (compound concentration 10 μM): 1x
Fc1ccc2c(/C=C/c3cccc(Cl)c3Cl)c[nH]c2c1 [compound 383]	32x (4 μM);	colistin MIC shift, Ab23 at (compd concentration) (compound concentration 2 μM): ≧16x (2μM)
FC(F)(F)c1ccc2[nH]cc(/C=C/c3ccc(Cl)c(Cl)c3)c2c1 [compound 369]	32x	
CN(C)CCCn1nc(-c2ccc(Cl)c(Cl)c2)c2ccc(C(F)(F)F)cc21 [559a]		colistin MIC shift, Ab23 at (compd concentration) (compound concentration 8 μM): 8x
FC(F)(F)c1ccc2c(-c3ccc(Cl)c(Cl)c3)nn(Cc3ccc(Cl)cc3)c2c1 [compound 542]		colistin MIC shift, Ab23 at (compd concentration) (compound concentration 10 μM): 1x
Cc1cccc2c(NCCCN(C)C)nc(-c3cc(-c4ccc(C(F)(F)F)cc4)cc(C(F)(F)F)c3)nc12 [compound 496]	16x	
Cc1cc(Br)cc2c(NCCCN(C)C)nc(-c3cc(Br)cc(C(F)(F)F)c3)nc12 [524g]	16x	
Fc1ccc2c(/C=C/c3cc(Cl)ccc3Cl)c[nH]c2c1 [compound 384]	8-16x	
CCN(CC)CCCC(C)Nc1nc(-c2cc(Br)c3ccccc3c2)nc2c(C)cccc12 (stereo not drawn) [compound 445]		colistin MIC shift, Ab23 at (compd concentration) (compound concentration 8 μM): 16x
